Assay results taken from patent publication US4806604A, “Photosensitive calcium chelators” (Regents of the University of California, priority 1987, dated 1989).
Like-named read-outs stand apart in the source and are kept apart here.

Key:
[1] = Ca^2+ affinity (dissociation constant) of the chelators; format: binding; conditions: for Ca^2+ affinity (rank in words): conformational explanation of Table I
[2] = Mg^2+ affinity (dissociation constant) of the chelators; format: binding
[3] = Release of Ca^2+ after flash photolysis; conditions: after a submillisecond light flash
[4] = Ca^2+:Mg^2+ selectivity (rejection of Mg^2+); format: binding; conditions: 22° C., 0.1M ionic strength
[5] = EDTA analogs vs EDTA parent; cited from earlier work
[6] = Tsien, 1980; read-out: Kd (Ca^2+); cited from earlier work
[7] = cytosolic free calcium 2+ typical for resting cells; cited from earlier work

Cc1ccc(N(CC(=O)O)CC(=O)O)c(O[C@@H]2CCC[C@@H]2Oc2cc(C(=O)c3cc4c(cc3N=O)OCO4)ccc2N(CC(=O)O)CC(=O)O)c1 (relative stereo) [VIII]
Kd ([1]; after photolysis of nitr-7 to the nitrosobenzophenone, read-out: dissociation constant for Ca^2+ upon photolysis): 3000 nM

Cc1ccc(N(CC(=O)O)CC(=O)O)c(O[C@@H]2CCC[C@@H]2Oc2ccccc2N(CC(=O)O)CC(=O)O)c1 (relative stereo) [Va]
Kd ([1]; Table I, Chelator V after saponification, before photolysis, read-out: Kd for Ca^2+): 20 nM
Ca^2+ affinity (rank in words) [1]: highest Ca^2+ affinities
higher affinity for Ca^2+ than the trans-isomer ([1]; cyclopentanediyl series, cis (Va) vs trans (Vb)): 300 -fold
Kd ([2]; Table I, Chelator V after saponification, read-out: Kd for Mg^2+): 4.2 mM

Cc1ccc(N(CC(=O)O)CC(=O)O)c(O[C@H]2CCC[C@H]2Oc2cc(C(O)c3cc4c(cc3[N+](=O)[O-])OCO4)ccc2N(CC(=O)O)CC(=O)O)c1 (relative stereo) [nitr-7, cis-1-(2-bis(carboxymethyl)amino-5-(1-hydroxy-1-(2-nitro-4,5-methylenedioxyphenyl)methyl)phenoxy)-2-(2-bis(carboxymethyl)amino-5-methylphenoxy)cyclopentane]
Kd ([1]; 22° C., 0.1M ionic strength, before photolysis, read-out: dissociation constant for Ca^2+): 53 nM
Ca^2+ affinity (rank in words) [1]: highest Ca^2+ affinities
Kd ([2]; 22° C., 0.1M ionic strength, read-out: dissociation constant for Mg^2+): 5.7 mM
exponential time constant of Ca^2+ release [3]: 1.8 millisecond
Rejection of Mg^2+ [4]: > 10^5

O=C(O)CN(CC(=O)O)[C@H]1CCCC[C@@H]1N(CC(=O)O)CC(=O)O (relative stereo) [trans-cyclohexanediyl analog]
stronger Ca^2+ affinity than the parent [5]: 324 -fold

O=C(O)CN(CC(=O)O)[C@H]1CCC[C@@H]1N(CC(=O)O)CC(=O)O (relative stereo) [trans-cyclopentanediyl analog]
higher affinity for Ca^2+ than the parent [5]: 3.7 -fold

O=C(O)CN(CC(=O)O)c1ccccc1OCCOc1ccccc1N(CC(=O)O)CC(=O)O [BAPTA, 1,2-bis(2-aminophenoxy)ethane N,N,N'N'-tetraacetic acid]
Kd [6]: 100 nM

O=C(O)CN(CC(=O)O)[C@@H]1CCCC[C@@H]1N(CC(=O)O)CC(=O)O [cis-cyclohexanediyl analog]
weaker Ca^2+ affinity than the parent [5]: 17 -fold

COC(c1ccc(N(CC(=O)O)CC(=O)O)c(OCCOc2cc(C)ccc2N(CC(=O)O)CC(=O)O)c1)c1cc2c(cc1[N+](=O)[O-])OCO2 (stereo not drawn) [nitr-2]
fraction of unphotolyzed chelator molecules bearing calcium 2+ ions [7]: 1/2
